In US11739098B2 (BRISTOL-MYERS SQUIBB COMPANY, priority 2017, dated 2023) one finds IC50 data, which are given here for ten compounds.

What all share (type): cell-based
One test addresses T1, human TLR8 (Homo sapiens, UniProt Q9NR97).
T1 construct: host or cells: HEK-Blue cells (HEK293-derived reporter line)
T1 sequence (Q9NR97 27-1041): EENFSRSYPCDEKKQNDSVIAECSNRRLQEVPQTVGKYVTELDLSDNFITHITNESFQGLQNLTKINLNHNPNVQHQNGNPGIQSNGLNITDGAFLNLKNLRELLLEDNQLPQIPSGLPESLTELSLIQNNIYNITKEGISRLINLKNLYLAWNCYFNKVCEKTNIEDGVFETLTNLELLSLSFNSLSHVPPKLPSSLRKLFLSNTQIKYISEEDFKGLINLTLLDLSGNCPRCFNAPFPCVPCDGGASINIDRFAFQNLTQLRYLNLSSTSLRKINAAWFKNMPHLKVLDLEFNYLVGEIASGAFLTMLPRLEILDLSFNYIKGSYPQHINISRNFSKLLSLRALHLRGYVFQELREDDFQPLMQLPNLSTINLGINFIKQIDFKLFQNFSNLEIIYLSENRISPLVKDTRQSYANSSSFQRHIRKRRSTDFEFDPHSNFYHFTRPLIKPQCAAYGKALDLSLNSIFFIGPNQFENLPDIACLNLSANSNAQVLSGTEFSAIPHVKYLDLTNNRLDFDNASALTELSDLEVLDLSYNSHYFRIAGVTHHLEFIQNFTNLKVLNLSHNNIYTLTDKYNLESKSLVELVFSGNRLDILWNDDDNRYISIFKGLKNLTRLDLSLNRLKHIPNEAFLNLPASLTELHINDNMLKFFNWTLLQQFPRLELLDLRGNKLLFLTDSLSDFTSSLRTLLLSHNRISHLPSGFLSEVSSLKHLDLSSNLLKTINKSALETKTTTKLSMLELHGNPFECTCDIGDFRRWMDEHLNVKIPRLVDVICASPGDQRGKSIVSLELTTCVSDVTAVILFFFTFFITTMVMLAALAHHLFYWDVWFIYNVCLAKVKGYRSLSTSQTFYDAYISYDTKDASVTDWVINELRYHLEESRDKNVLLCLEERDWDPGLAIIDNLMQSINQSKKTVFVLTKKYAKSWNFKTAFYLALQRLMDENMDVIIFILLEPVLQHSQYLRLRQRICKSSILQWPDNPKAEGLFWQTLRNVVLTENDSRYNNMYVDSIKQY
As to the kind of experiment: TLR8 inhibition reporter assay (HEK-Blue cells, SEAP reporter, R848 stimulation). The following applies: HEK-Blue cells overexpressing human TLR8, SEAP reporter, R848 15.9 μM. The essentials: (§1)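 HEK-Blue cells overexpressing human TLR7, TLR8 or TLR9 (NF-κB/AP-1-driven SEAP) pre-treated 30 min at room temperature with compound (0.05 nM–50 μM), then stimulated with gardiquimod 7.5 μM (TLR7), R848 15.9 μM (TLR8) or ODN2006 5 nM (TLR9). SEAP read colorimetrically after 22 h at 37 °C; % inhibition calculated.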
(In general: A reporter such as luciferase makes a cellular process visible.)

A further test deals with T2, human TLR7 (Homo sapiens, UniProt Q9NYK1).
T2 construct: host or cells: HEK-Blue cells (HEK293-derived reporter line)
T2 sequence (Q9NYK1 27-1049): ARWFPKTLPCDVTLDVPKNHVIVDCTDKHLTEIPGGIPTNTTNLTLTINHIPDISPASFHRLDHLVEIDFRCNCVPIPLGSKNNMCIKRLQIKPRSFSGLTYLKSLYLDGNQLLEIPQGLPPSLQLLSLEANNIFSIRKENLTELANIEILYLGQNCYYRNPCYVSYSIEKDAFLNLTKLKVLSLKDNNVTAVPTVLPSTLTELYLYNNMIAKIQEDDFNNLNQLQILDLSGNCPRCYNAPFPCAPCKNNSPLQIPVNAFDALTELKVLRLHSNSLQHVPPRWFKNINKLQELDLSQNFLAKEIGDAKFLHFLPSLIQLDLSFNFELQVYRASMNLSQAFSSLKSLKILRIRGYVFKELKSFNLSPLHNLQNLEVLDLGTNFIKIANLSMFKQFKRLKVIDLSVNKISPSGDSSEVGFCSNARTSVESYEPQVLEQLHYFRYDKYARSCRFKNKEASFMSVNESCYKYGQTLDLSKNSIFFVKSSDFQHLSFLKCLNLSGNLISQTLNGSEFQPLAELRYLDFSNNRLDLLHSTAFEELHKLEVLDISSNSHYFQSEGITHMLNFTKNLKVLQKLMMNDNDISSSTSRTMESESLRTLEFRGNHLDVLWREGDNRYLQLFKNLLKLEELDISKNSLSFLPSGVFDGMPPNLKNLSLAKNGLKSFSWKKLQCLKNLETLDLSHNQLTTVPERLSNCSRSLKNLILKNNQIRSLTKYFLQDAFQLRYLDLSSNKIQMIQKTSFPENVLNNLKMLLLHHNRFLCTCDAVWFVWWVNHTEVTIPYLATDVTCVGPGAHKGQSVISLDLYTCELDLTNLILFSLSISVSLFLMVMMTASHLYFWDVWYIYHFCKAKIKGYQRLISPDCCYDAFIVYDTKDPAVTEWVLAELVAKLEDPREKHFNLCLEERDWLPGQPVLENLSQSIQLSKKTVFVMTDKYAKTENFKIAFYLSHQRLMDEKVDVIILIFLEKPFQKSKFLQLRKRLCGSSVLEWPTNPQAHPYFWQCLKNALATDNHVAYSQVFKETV
As to the kind of experiment: TLR7 inhibition reporter assay (HEK-Blue cells, SEAP reporter, gardiquimod stimulation). The following applies: HEK-Blue cells overexpressing human TLR7, SEAP reporter, gardiquimod 7.5 μM. In a few lines: as §1

Another test concerns the target T3, human TLR9 (Homo sapiens, UniProt Q9NR96).
T3 construct: host or cells: HEK-Blue cells (HEK293-derived reporter line)
T3 sequence (Q9NR96 26-1032): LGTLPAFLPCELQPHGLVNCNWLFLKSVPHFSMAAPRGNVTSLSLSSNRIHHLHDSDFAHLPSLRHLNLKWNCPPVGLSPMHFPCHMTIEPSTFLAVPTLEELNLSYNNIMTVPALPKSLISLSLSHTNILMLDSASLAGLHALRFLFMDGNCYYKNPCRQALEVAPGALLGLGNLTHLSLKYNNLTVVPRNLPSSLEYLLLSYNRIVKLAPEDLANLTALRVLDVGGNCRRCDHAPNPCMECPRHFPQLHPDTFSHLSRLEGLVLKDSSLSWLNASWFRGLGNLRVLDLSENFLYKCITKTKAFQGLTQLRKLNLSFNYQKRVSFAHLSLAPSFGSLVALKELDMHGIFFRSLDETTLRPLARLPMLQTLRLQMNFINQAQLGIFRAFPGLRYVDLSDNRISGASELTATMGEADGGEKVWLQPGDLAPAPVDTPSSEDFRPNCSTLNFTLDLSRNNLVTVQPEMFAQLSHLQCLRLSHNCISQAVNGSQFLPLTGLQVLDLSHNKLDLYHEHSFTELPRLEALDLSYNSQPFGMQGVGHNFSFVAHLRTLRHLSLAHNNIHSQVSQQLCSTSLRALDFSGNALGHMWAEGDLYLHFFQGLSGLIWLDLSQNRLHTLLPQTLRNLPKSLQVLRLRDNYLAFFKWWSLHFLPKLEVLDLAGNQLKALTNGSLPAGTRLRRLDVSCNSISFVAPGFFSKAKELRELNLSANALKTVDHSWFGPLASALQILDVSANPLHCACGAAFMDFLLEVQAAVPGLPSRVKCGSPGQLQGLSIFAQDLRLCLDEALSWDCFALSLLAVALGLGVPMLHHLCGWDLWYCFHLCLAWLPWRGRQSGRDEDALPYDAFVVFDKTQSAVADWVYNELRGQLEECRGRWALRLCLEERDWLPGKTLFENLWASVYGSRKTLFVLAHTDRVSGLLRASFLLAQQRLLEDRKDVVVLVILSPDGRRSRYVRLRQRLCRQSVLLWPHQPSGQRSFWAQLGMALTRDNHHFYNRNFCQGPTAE
As to the kind of experiment: TLR9 inhibition reporter assay (HEK-Blue cells, SEAP reporter, ODN2006 stimulation). The following applies: HEK-Blue cells overexpressing human TLR9, SEAP reporter, ODN2006 5 nM. In a few lines: as §1

Some results are limits rather than exact numbers.

The IC50 is the concentration that gives 50% inhibition. In the case of `CC(C)c1c(-c2ccnc3[nH]ncc23)[nH]c2ccc(C3CCN(C(=O)CN4CC[C@@H](O)C4)CC3)cc12` [Example 579, (R)-2-(3-hydroxypyrrolidin-1-yl)-1-(4-(3-isopropyl-2-(1H-pyrazolo[3,4-b]pyridin-4-yl)-1H-indol-5-yl)piperidin-1-yl)ethan-1-one], the values for the IC50 at human TLR8, against human TLR7 and against human TLR9 were under 100 nM, under 100 nM and 100 to 1000 nM, respectively.

Turning to `CNC(=O)CN1CCC(c2ccc3[nH]c(-c4ccc5ncnn5n4)c(C(C)C)c3c2)CC1` [Example 277, 2-(4-(2-([1,2,4]triazolo[1,5-b]pyridazin-6-yl)-3-isopropyl-1H-indol-5-yl)piperidin-1-yl)-N-methylacetamide], the half-inhibitory concentration (IC50) against human TLR8 is under 100 nM; against human TLR7 it was under 100 nM; against human TLR9, 1000 to 50000 nM.

In the case of `CC(C)c1c(-c2ccc3c(c2)oc(=O)n3C)[nH]c2ccc(C3CCNCC3)cc12` [Example 89, 6-(3-isopropyl-5-(piperidin-4-yl)-1H-indol-2-yl)-3-methylbenzo[d]oxazol-2(3H)-one], the half-inhibitory concentration (IC50) was under 100 nM on human TLR8, 100 to 1000 nM on human TLR7 and 100 to 1000 nM on human TLR9.

`CC(C)c1c(-c2cn(C)c3ncccc23)[nH]c2ccc(C3CCN(CC#N)CC3)cc12` [Example 958, 2-(4-(3-isopropyl-2-(1-methyl-1H-pyrrolo[2,3-b]pyridin-3-yl)-1H-indol-5-yl)piperidin-1-yl)acetonitrile]: the IC50 at human TLR8 is under 100 nM; against human TLR7, under 100 nM; on human TLR9 it was 1000 to 50000 nM.

Regarding `Cc1cc2nnnn2cc1-c1[nH]c2ccc(C3CCNCC3)cc2c1C(C)C` [Example 76, 6-(3-isopropyl-5-(piperidin-4-yl)-1H-indol-2-yl)-7-methyltetrazolo[1,5-a]pyridine], the IC50 is under 100 nM on human TLR8, under 100 nM on human TLR7 and 1000 to 50000 nM on human TLR9.

For `Cc1cc(-c2[nH]c3ccc(C4CCN(C(=O)CN(C)C)CC4)cc3c2C(C)C)nc2scnc12` [Example 543, 2-(dimethylamino)-1-(4-(3-isopropyl-2-(7-methylthiazolo[5,4-b]pyridin-5-yl)-1H-indol-5-yl)piperidin-1-yl)ethan-1-one], the 50% inhibitory concentration (IC50) against human TLR8 is under 100 nM; at human TLR7, under 100 nM; against human TLR9 it was 1000 to 50000 nM.

Consider `CC(C)c1c(-c2ccnc3[nH]ncc23)[nH]c2ccc(C3CCN(C4CCCNCC4)CC3)cc12` (stereo not drawn) [Example 828, 4-(5-(1-(azepan-4-yl)piperidin-4-yl)-3-isopropyl-1H-indol-2-yl)-1H-pyrazolo[3,4-b]pyridine], for which the half-maximal inhibitory concentration (IC50) at human TLR8 was under 100 nM; against human TLR7, 1000 to 50000 nM; against human TLR9, 100 to 1000 nM.

Regarding `CCOc1cc(-c2[nH]c3ccc(C4CCN(CC(=O)N(C)C)CC4)cc3c2C(C)C)cc2nc(C)nn12` [Example 404, 2-(4-(2-(5-ethoxy-2-methyl-[1,2,4]triazolo[1,5-a]pyridin-7-yl)-3-isopropyl-1H-indol-5-yl)piperidin-1-yl)-N,N-dimethylacetamide], the IC50 against human TLR8 was under 100 nM; at human TLR7 it was under 100 nM; on human TLR9 it was 1000 to 50000 nM.

As for `CC(C)c1c(-c2cnc3cnccn23)[nH]c2ccc(C3CCNCC3)cc12` [Example 194, 3-(3-isopropyl-5-(piperidin-4-yl)-1H-indol-2-yl)imidazo[1,2-a]pyrazine], the IC50 on human TLR8 lay in the range of 1000 to 50000 nM; against human TLR7, 1000 to 50000 nM; on human TLR9 it was 100 to 1000 nM.

Regarding `Cc1ccc(-c2[nH]c3ccc(C4CCN(CC(C)(C)O)CC4)cc3c2C(C)C)c2ncnn12` [Example 769, 1-(4-(3-isopropyl-2-(5-methyl-[1,2,4]triazolo[1,5-a]pyridin-8-yl)-1H-indol-5-yl)piperidin-1-yl)-2-methylpropan-2-ol], the IC50 against human TLR8 was under 100 nM; against human TLR7, under 100 nM; at human TLR9, 1000 to 50000 nM.
